From article PMC2225439, “Amyloid as a Depot for the Formulation of Long-Acting Drugs” (PLoS Biology, 2008)

Columns and labels:
[1] = Peptide release from amyloid (dialysis experiment); details: 3.5-kDa MWCO, room temperature, 35 d
Method: Although amyloid fibrils are very stable, they must follow thermodynamic equilibrium conditions between fibril and monomer. […] A total of 200 μl of 30-d-old GnRH analog (in) was dialyzed 4 ml of 5% D-mannitol (out). A 3.5-kDa cutoff, which is twice the size of the peptides studied, was chosen to ensure that the released particles are most likely monomeric. The peptide release and the remaining aggregates were monitored by fluorescence over 35 d at room temperature.
A 200-μl aliquot of aged GnRH in solution conditions given above was transferred into a 0.6-ml Eppendorf tube with a hole in the cap. To study the effect of heparin on peptide release, a mixture of hormone analog and heparin (1:1 v/v) was incubated overnight in parallel with a half-diluted peptide fibril sample in 5% D-mannitol and 0.01% sodium azide. The hole in the cap of the Eppendorf tube was sealed with a 3.5-kDa molecular weight cutoff (MWCO) membrane. Next, the Eppendorf tube was inserted upside down into a 15-ml Falcon tube containing 4 ml of 5% D-mannitol in water and 0.01% sodium azide. Care was taken to make sure that the membrane was exposed to solutions both in and outside and that any bubbles at the membrane interface were removed. The tubes were then incubated at room temperature. To measure the remaining peptide concentration inside the 0.6-ml Eppendorf tube, a 5-μl aliquot was diluted into 500 μl water with 5% D-mannitol, 0.01% sodium azide, and the fluorescence was measured with excitation at 280 nm and emission in the range of 290–500 nm. The excitation slit width was 2 nm, and emission slit width was 11 nm. To determine the peptide concentration outside the membrane in the 15-ml tube, an aliquot of 250 μl of solution was taken from the releasing medium, diluted into 500 μl final volume by 5% D-mannitol, 0.01% sodium azide, and fluorescence was measured. Following spectra recording, the dialysis system was reassembled as described above. […] The normalized intensity maxima from inside and outside the membrane were plotted as a function of time and fit by an exponential function to extract the half-life of the fibrils and the K off, respectively. […] The extracted half-life, t 1/2, is the time taken, during which the fluorescence signal inside the 0.6-ml Eppendorf tube drops by 50%.

[2] = molecular target: T1, wild-type GnRH (Homo sapiens, UniProt P01148); assay: Seeding of wild-type GnRH by L20 fibrils; details: matured fibrils 5% v/v with GnRH solution 95% v/v, 5% D-mannitol, room temperature without stirring, 1 mo; Thio T and EM
T1 construct: gonadotropin-releasing hormone (GnRH); made in house; host or cells: chemical solid-phase synthesis (no expression host)
Description: Another concern for the application of amyloids in the formulation of long-acting drugs is the potential multiplication and spread of amyloids through seeding. Only a small amount of fibrillar seed is needed to induce and accelerate self-polymerization in the presence of monomeric amyloid protein/peptide. Within the context of GnRH, perhaps amyloids of the injected GnRH analogs may act as the seeds and the host GnRH as the reservoir of the free monomer. To mimic this situation in vitro, a seeding reaction was set up with a small amount of matured, long-acting L20 fibrils (5% v/v) in presence of a solution of wild-type GnRH (95% v/v). […]
(§1) A total of 5 μl of matured L20 fibril solution at a concentration of 1 mg/ml in 5% D-mannitol, 0.01% sodium azide was mixed with 95 μl of freshly prepared GnRH solution in the same solution condition followed by incubation at room temperature without stirring. […] Once a week, a 10-μl aliquot was diluted into 500 μl water containing 5% D-mannitol, 0.01% sodium azide, and 10 μl of 1 mM Thio T to measure the Thio T fluorescence as described above. […] The protein concentration of the supernatant was measured by UV absorbance with ɛ280 of 6,500 M^−1cm^−1. […] The formation of amyloid was monitored regularly for the mixture (α-Syn+L20) and α-Syn by Thio T binding.

[3] = molecular target: T2, α-Syn (Homo sapiens, UniProt P37840); assay: Cross-seeding of α-Syn by L20 fibrils; details: matured fibrils 5% v/v with 400 μM α-Syn in PBS pH 7.4, 37 °C, vigorous stirring, 30 d; Thio T
T2 construct: made in house
Method: Although the seeding of amyloids requires a high amino acid sequence similarity between the protein/peptide of the seed and its soluble host counterpart, cross-seeding between different protein species have been documented. To test whether amyloids of long-acting GnRH analogs are able to cross-seed with a protein associated with Parkinson disease, α-Syn, a seeding reaction was done with a small amount of matured L20 fibrils (5% v/v) in the presence of α-Syn (95% v/v; 400 μM concentration of monomeric solution [pH 7.4] in PBS). The fibril growth of the mixture as well as α-Syn in PBS as control were followed over a period of 30 d by Thio T binding.
as §1

Substance: Ac-DNal-DCpa-Agl(Nic)-Ser-Aph(Ac)-DAph(Ac)-Leu-ILys-Pro-DAla-NH2 [L20]
- KD ([1]; dissociation constant of the aggregates = final monomer concentration, 200 μl of 30-d-old analog dialyzed against 4 ml 5% D-mannitol, fluorescence ex 280 nm): 8 µM
- t1/2 ([1]; half-life of fibrils: time in which fluorescence inside drops by 50%, dialysis of 30-d-old analog, 5% D-mannitol, exponential fit, 2 d = intrinsic diffusion of monomer): 35 days
- seeding of wild-type GnRH [2]: unable to seed wild-type GnRH
- cross-seeding of α-Syn [3]: did not significantly influence the aggregation of α-Syn
